Source: patent publication EP4095134A1, “POLYCYCLIC COMPOUNDS FOR THE TREATMENT OF NEUROLOGICAL INDICATIONS” (UCL Business Ltd, priority 2021, dated 2022)

Target: T1, P2Y1 receptor (Homo sapiens, UniProt P47900)
T1 construct: expressed in transfected cells
Experiment: P2Y1 IP1 accumulation HTRF assay, antagonism of agonist MRS2365 in stably transfected cells
Type: cell-based
Conditions: for IC50: 5nM MRS2365, values rounded to nearest whole number
Procedure, shortened: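 HTRF IP1 accumulation in stably P2Y1-overexpressing cells, plated the day before. Compounds pre-incubated 1 hour (10-point semi-log curve from 10µM, 0.1% DMSO), then 5nM MRS2365 added for 60 minutes, both at 37°C / 5% CO2. IP1 interpolated from standard curve; IC50 from N ≥ 4 runs.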

T1 sequence (P47900 whole entry): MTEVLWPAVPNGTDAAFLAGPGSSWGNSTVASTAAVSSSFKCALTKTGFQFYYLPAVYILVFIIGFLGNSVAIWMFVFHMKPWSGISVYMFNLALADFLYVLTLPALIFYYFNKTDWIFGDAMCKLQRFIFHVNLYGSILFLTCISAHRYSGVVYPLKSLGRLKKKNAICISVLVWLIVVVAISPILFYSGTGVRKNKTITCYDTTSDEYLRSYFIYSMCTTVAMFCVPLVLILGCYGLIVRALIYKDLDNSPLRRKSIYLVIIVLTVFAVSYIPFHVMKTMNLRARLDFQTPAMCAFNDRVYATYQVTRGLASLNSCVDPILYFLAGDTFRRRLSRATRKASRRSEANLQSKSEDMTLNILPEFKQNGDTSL

Compound	IC50 (racemic, N >= 4) [nM]	further results
O=C(Nc1nc2ccccc2[nH]1)Nc1cccnc1Oc1ccccc1C1(C(F)(F)F)CCO1 (racemic) [S84, 1-(1H-benzo[d]imidazol-2-yl)-3-(2-(2-(2-(trifluoromethyl)oxetan-2-yl)phenoxy)pyridin-3-yl)urea]	4940	–
FC(F)(F)c1nnc(Nc2cccnc2Oc2ccccc2C2(C(F)(F)F)CCO2)s1 (racemic) [S73]	1690	–
COc1ccc(NC(=O)Nc2cccnc2Oc2ccccc2C2(C(F)(F)F)CCO2)cc1F (racemic) [S55, 1-(3-fluoro-4-methoxyphenyl)-3-(2-(2-(2-(trifluoromethyl)oxetan-2-yl)phenoxy)pyridin-3-yl)urea]	560	–
O=C(Nc1ccc(OC(F)(F)F)cc1)Nc1cccnc1Oc1ccccc1C1(C(F)(F)F)CCN1Cc1ccccc1 (racemic) [S8]	64	–
Fc1ccc(Oc2ncccc2Nc2nc3ccc(OC(F)(F)F)cc3[nH]2)c(C2(C(F)(F)F)CCO2)c1 (racemic) [S121]	1440	–
O=C(Nc1ccc(S(F)(F)(F)(F)F)cc1F)Nc1cccnc1Oc1ccccc1C1(C(F)(F)F)CCO1 (racemic) [S13, 1-(2-fluoro-4-(pentafluoro-λ^6-sulfaneyl)phenyl)-3-(2-(2-(2-(trifluoromethyl)oxetan-2-yl)phenoxy)pyridin-3-yl)urea]	93	–
FC(F)c1nnc(Nc2cccnc2Oc2ccccc2C2(C(F)(F)F)CCO2)s1 (racemic) [S82]	4530	–
CC(C)(C)CN1CCC1(c1ccccc1Oc1ncccc1NC(=O)Nc1ccc(OC(F)(F)F)cc1)C(F)(F)F (racemic) [S117]	39	–
Cc1ccc(NC(=O)Nc2ccc(OC(F)(F)F)cc2)c(Oc2ccccc2C2(C(F)(F)F)CCN2C)n1 (racemic) [S6]	50	–
Cc1ccc(NC(=O)Nc2nc3ccc(C)nc3s2)c(Oc2ccc(F)cc2C2(C(F)(F)F)CCO2)n1 (racemic) [S34, 1-(2-(4-fluoro-2-(2-(trifluoromethyl)oxetan-2-yl)phenoxy)-6-methylpyridin-3-yl)-3-(5-methylthiazolo[5,4-b]pyridin-2-yl)urea]	196	–
Cc1ccc(NC(=O)Nc2ccc(OC(F)(F)F)cc2F)c(Oc2ccccc2C2(C(F)(F)F)CCN2C)n1 (racemic) [S3]	40	–
O=C(Nc1cccnc1Oc1ccccc1C1(C(F)(F)F)CCO1)NC1CC2(CC2)C1 (racemic) [S74]	2140	–
O=C(Nc1ccc(OC(F)(F)F)cc1)Nc1cccnc1Oc1ccccc1C1(C(F)(F)F)CCO1 (racemic) [S11, 1-(4-(trifluoromethoxy)phenyl)-3-(2-(2-(2-(trifluoromethyl)oxetan-2-yl)phenoxy)pyridin-3-yl)urea]	84	–
Cc1ccc(NC(=O)NC2CC3(CCC3)C2)c(Oc2ccc(F)cc2C2(C(F)(F)F)CCO2)n1 (racemic) [S63, 1-(2-(4-fluoro-2-(2-(trifluoromethyl)oxetan-2-yl)phenoxy)-6-methylpyridin-3-yl)-3-(spiro[3.3]heptan-2-yl)urea]	844	–
O=C(Nc1ccc(OC(F)(F)F)cc1F)Nc1cccnc1Oc1cc(F)ccc1C1(C(F)(F)F)CCO1 (racemic) [S12]	87	–
Cc1ccc(NC(=O)Nc2ccc(C(C)(C)C(F)(F)F)cc2)c(Oc2ccccc2[C@@]2(C(F)(F)F)CCO2)n1 (single isomer, unassigned) [S99]	–	IC50 (single enantiomer): 29 nM
Cc1c(Oc2ncccc2NC(=O)Nc2ccc(OC(F)(F)F)cc2)cccc1N1CCC1 (racemic) [S94]	889	–
CN1CC[C@]1(c1ccccc1Oc1ncccc1NC(=O)Nc1ccc(OC(F)(F)F)cc1)C(F)(F)F (racemic) [S105]	–	IC50 (single enantiomer): 77 nM
COc1ccc2nc(Nc3cccnc3Oc3ccc(F)cc3C3(C(F)(F)F)CCO3)[nH]c2n1 (racemic) [S96]	–	inhibition at 10 µM (at maximum tested concentration of 10000 nM, full dose-response curve not generated): 56%
CN1CCC1(c1ccccc1Oc1ncccc1NC(=O)Nc1ccc(Cl)cc1F)C(F)(F)F (racemic) [S10]	78	–
O=C(Nc1ccc(OC(F)(F)F)cc1)Nc1cccnc1Oc1c(F)cccc1C1(C(F)(F)F)CCO1 (racemic) [S37]	220	–
Cc1cc2nc(Nc3cccnc3Oc3ccc(F)cc3C3(C(F)(F)F)CCO3)[nH]c2cc1C (racemic) [S120]	1240	–
